Measured values as given in EP4653001A1, “TREATMENT, DIAGNOSIS AND/OR PROGNOSIS OF MITOCHONDRIAL DISEASES” (Universidad Autónoma de Madrid, priority 2024, dated 2025).

Experiments:
[1] = system: 143B cell lines; experiment: Cell viability of CRISPR knock-out 143B cell lines treated with ETC inhibitors; format: cell-based
Procedure: (§1) All cell lines, 143b, HeLa, U2OS, and transmitochondrial cybrids carrying mutation in CI (ND2), CIII (CytB) or CIV (Cox2) subunits, were maintained in DMEM high glucose (HyClone), 10% FBS and 1% P/S at 37°C with 5% CO2. Mitochondrial mutant cells were cultured with supplementation of 50 µg/mL uridine. The selected cancer cell lines with different levels of malic enzyme (HCC15, KYSE410, CAKI1, J82, MDAMB453, Colo320, NCIH1703) were obtained from the DSMZ-German Collection of Microorganisms and Cell Cultures GmbH and cultured in the same DMEM 10% FBS medium. OCI-Lys3 and RCH-ACV cell lines (cells in suspension), were obtained from the same repository and cultured in RPMI 10% FBS medium. Transfections for gain- and loss-of-function studies were performed according to the manufacturer's instructions using the polyfect reagent (Qiagen, 301107). For cell number and proliferation experiments, cells were seeded in 12 or 6-well plates and allowed to proliferate for the specified durations. Subsequently, cells were trypsinized and quantified using a hemocytometer (NanoEnTek, DHC-N01). Cell viability was quantified using propidium iodide (PI; 50 µg/ml) staining.
Generation of knockout cell lines using CRISPR-Cas9 technology was performed with the lenti-CRISPR v2 vector (Addgene #52961). Guide sequences are: • sgGFPT1, 5-[…]-3 (SEQ ID NO: 1); • sgG6PD, 5-[…]-3 (SEQ ID NO: 2); • sgPHGDH, 5-[…]-3 (SEQ ID NO: 3); • sgMPC1, 5-[…]-3 (SEQ ID NO: 4) • sgPC, 5-CAGGCCCGGAACACACGGA-3 (SEQ ID NO: 5); • sgACLY, 5-[…]-3 (SEQ ID NO: 6); • sgME1, 5-[…]-3 (SEQ ID NO: 7).
To investigate glucose-dependent alternative metabolic pathways that become essential upon ETC inhibition, we generated through CRISPR/Cas9 technology, knock-out (KO) 143B cell lines for each of the following rate-limiting enzymes and transporters. We selected glucose 6 phosphate dehydrogenase (G6PD) for the PPP, Glutamine-Fructose-6-Phosphate Transaminase 1 (GFPT1) for the hexosamine pathway, Phosphoglycerate Dehydrogenase (PHGDH) for the serine biosynthesis pathway and Mitochondrial Pyruvate Carrier 1 (MPC1) to prevent pyruvate entry into the mitochondria. These KO and Control cells were treated with two specific ETC inhibitors (Piericidin A that targets Complex I and Antimycin A that targets Complex III) and cell viability was assessed after 3 days of treatment. […] We took advantage of the fruit fly Drosophila melanogaster model, as it is cost- and time-efficient and recapitulate a wide range of phenotypes seen in patients with metabolic and mitochondrial disorders. We obtained flies carrying mutations in Zw and Pgd genes (named: Pgd^39 Zw^lo2a), corresponding to human orthologs G6PD and 6PGD respectively. […]

[2] = system: 143B cells; experiment: Time-course cell proliferation / survival of 143B cells; format: cell-based; settings: 143B cells, over the course of 96 h; Piericidin 100 nM, G6PDi 50 uM; combination effect beyond 48 h
Procedure: as §1, with “For cell number and proliferation experiments, cells were seeded in 12 or 6-well plates and allowed to proliferate for the specified durations.” left out
Next, we conducted time-course experiments to gain further knowledge on the metabolic determinants underlying the observed synthetic lethality between PPP and OXPHOS. 143B cells were treated either with Piericidin or G6PDi (selective inhibitor of G6PD) alone or the combination of both and cell proliferation was quantified over the course of 96 h. […]

[3] = system: astrocytes; experiment: ATP measurement in astrocytes (ATP Assay Kit); format: cell-based, mouse; settings: 100 nM, 24 h
Procedure: Primary cultures of C57BL/6 mouse cortical astrocytes were derived from postnatal day 2-3 pups. They were plated on pre-treated dishes coated with Poly-L-lysine (100 µg/ml) and cultured in DMEM/F-12 (ThermoFisher) supplemented with 15% FBS and 1% penicillin/streptomycin (P/S). After 24 hours of plating, the medium was switched to 10% FBS.
ATP Assay Kit (Abcam, #ab83355) was used to analyze ATP levels. Briefly, Cells were seeded in M24 plates (neurons at 500,000 cells/mL and monolayer density for astrocytes), and for the ATP experiments, three wells per condition were combined. An alternative deproteinization protocol was applied to purify the samples, and a Colorimetric Assay was conducted as outlined in the original protocol. The measurements were obtained using the CLARIOstar Plus plate reader from BMG LABTECH.

CC=C(C)C(O)C(C)C=C(C)C=CCC(C)=CCc1nc(OC)c(OC)c(O)c1C (stereo not shown) [Piericidin, Piericidin A]
cell viability ([1]; G6PD KO 143B cells, after 3 days of treatment): sensitive
survival or proliferation ([1]; KO cells for GFPT1, PHGDH or MPC1, after 3 days of treatment): no differences
cellular fitness / cell survival [2]: did not cause a substantial decline
ATP levels [3]: did not cause any alteration
